Experimental data reported in patent publication JPH09183729A, “凍結乾燥ウラシルを含有する抗腫瘍医薬組成物” (priority 1995, dated 1997).
Converted amounts (≈) assume the structure as drawn.

Key:
[1] = FT compared with 5-FU; UFT compared with 5-FU, FT and other antitumour drugs; cited from earlier work
[2] = physchem; conditions: water, saturated solution concentration in water
[3] = cited from earlier work

| SMILES | toxicity / side effects [1] | solubility [2] | solubility in water ([3]; 25℃ water, Merck Index) | solubility in alcohol and ether ([3]; alcohol and ether) | solubility in cold water ([3]; cold water) |
| --- | --- | --- | --- | --- | --- |
| O=c1[nH]cc(F)c(=O)[nH]1 [5-FU, 5-fluorouracil] | 骨髄機能抑制などの重篤な副作用があり | – | – | – | – |
| O=c1cc[nH]c(=O)[nH]1 [ウラシル] | – | ~14.7 mg/mL (≈ 131 mM) | 0.358 g/100g | 難溶 | わずかに溶け |
